In US10266577B2, “GLP-1 derivatives, and uses thereof” (Novo Nordisk A/S, priority 2013, dated 2019):
Numbered stars: 1 amine (or outer) side, 2 acyl side, 3 side chain; on linkers, the order of the positions; unused ones are H or OH. Square brackets hold non-standard residues; d marks the D form. Side chains are listed from the residue outwards. Peptide text beside a SMILES is read from it. * marks the point of attachment. C18 diacid = O=C(O)CCCCCCCCCCCCCCCCC(=O)*; γGlu = O=C(O)[C@H](CCC(=O)[*:2])N[*:1]; εLys = N[C@@H](CCCCN[*:1])C(=O)[*:2]; AEEA = NCCOCCOCC(=O)O; Aib = CC(C)(N)C(=O)O

How the values were obtained:
human GLP-1 receptor [1] = target: T1, human GLP-1 receptor (Homo sapiens, UniProt P43220); test: GLP-1 receptor binding: competitive binding assay (125I-GLP-1, SPA) on isolated membranes at low and high HSA; conditions: displacement of 125I-GLP-1; for IC50: high serum albumin (2.0% HSA final assay concentration)
T1 construct: expressed in transfected cells; host or cells: BHK cells (parent line BHKTS13), clone FCW467-12A; membrane preparation
Method: The purpose of this example is to test the receptor binding of the GLP-1 derivatives in vitro. The receptor binding is a measure of affinity of a derivative for the human GLP-1 receptor.
In this type of assay a labelled ligand (in this case ^125I-GLP-1) is bound to the receptor. Each derivative is added in a series of concentrations to isolated membranes containing the human GLP-1 receptor and displacement of the labelled ligand is monitored. The receptor binding is reported as the concentration at which half of the labelled ligand is displaced from the receptor, the IC50 value.
The following chemicals were used in the assay: Human serum albumin (HSA) (Sigma A1653), DMEM w/o phenol red (Gibco 11880-028), Pen/strep (Invitrogen 15140-122), G418 (Invitrogen 10131-027), 1 M Hepes (Gibco 15630), EDTA (Invitrogen 15575-038), PBS (Invitrogen 14190-094), fetal calf serum (Invitrogen 16140-071), EGTA, MgCl2 (Merck 1.05832.1000), Tween 20 (Amresco 0850C335), SPA particles (wheat germ agglutinin (WGA) SPA beads, Perkin Elmer RPNQ0001), [^125I]-GLP-1]-(7-36)NH2 (produced in-house), OptiPlate™-96 (Packard 6005290).
Buffer 1 consisted of 20 mM Na-HEPES plus 10 mM EDTA and pH was adjusted to 7.4. Buffer 2 consisted of 20 mM Na-HEPES plus 0.1 mM EDTA and pH was adjusted to 7.4. Assay buffer consisted of 50 mM HEPES supplemented with 5 mM EGTA, 5 mM MgCl2, 0.005% Tween 20 and pH was adjusted to 7.4. An 8% albumin stock consisted of HSA dissolved at 8% (w/v) in assay buffer. An 0.02% albumin stock consisted of HSA dissolved at 0.02% (w/v) in assay buffer.
The cells express the human GLP-1 receptor.
The cells were grown at 5% CO2 in DMEM, 10% fetal calf serum, 1% Pen/Strep (Penicillin/Streptomycin) and 1.0 mg/ml of the selection marker G418.
To make a membrane preparation the cells were grown to approximately 80% confluence. The cells were washed twice in phosphate-buffered saline and harvested. The cells were pelleted using a brief centrifugation and the cell pellet was kept on ice. The cell pellet was homogenised with ULTRA-THURRAX™ dispersing instrument for 20-30 seconds in a suitable amount of buffer 1 (e.g., 10 ml). The homogenate was centrifuged for 15 minutes. The pellet was re-suspended (homogenised) in 10 ml buffer 2 and centrifuged. This step was repeated once more. The resulting pellet was re-suspended in buffer 2 and the protein concentration was determined. The membranes were aliquoted and stored at minus 80° C.
For the receptor binding assay in the presence of low HSA (0.005%) 50 μl of the assay buffer was added to each well of an assay plate. Assay continued with step 3.
For the receptor binding assay in the presence of high HSA (2%) 50 μl of the 8% albumin stock was added to each well of an assay plate. Assay continued with step 3.
Cell membrane aliquots were thawed and diluted to their working concentration. Fifty μl were added to each well in the assay plate.
WGA SPA beads were suspended in assay buffer at 20 mg/ml. The suspension was diluted to 10 mg/ml in assay buffer just prior to addition to the assay plate. Fifty μl were added to each well in the assay plate.
The incubation was started by adding 25 μl of 480 pM solution of [^125I]-GLP-1]-(7-36)NH2 to each well of the assay plate. A 25 μl aliquot was reserved for measuring total counts/well.
The assay plate was incubated for 2 h at 30° C.
The assay plate was centrifuged for 10 min.
The assay plate was read in a Packard TopCount NXT instrument.
The data from the TopCount instrument were transferred to GraphPad Prism software. The software averaged the values for the replicates and performed a non-linear regression. IC50 values were calculated by the software and reported in nM.

in vivo = conditions: male, Göttingen, minipig, iv
Method: The purpose of this study is to determine the protraction in vivo of the GLP-1 derivatives after i.v. administration to minipigs, i.e. the prolongation of their time in the body and thereby their time of action. This is done in a pharmacokinetic (PK) study, where the terminal half-life of the derivative in question is determined. By terminal half-life is meant the time it takes to halve a certain plasma concentration in the terminal elimination phase.
Male Göttingen minipigs were obtained from Ellegaard Göttingen Minipigs (Dalmose, Denmark) approximately 7-14 months of age and weighing approximately 16-35 kg were used in the studies. The minipigs were housed either individually (pigs with permanent catheters) or in a group and fed restrictedly once or twice daily with SDS minipig diet (Special Diets Services, Essex, UK).
After at least 2 weeks of acclimatisation two permanent central venous catheters were implanted in vena cava caudalis or cranialis in each animal. The animals were allowed 1 week recovery after the surgery, and were then used for repeated pharmacokinetic studies with a suitable wash-out period between successive GLP-1 derivative dosings.
Blood samples (for example 0.8 ml) were collected in EDTA buffer (8 mM) and then centrifuged at 4° C. and 1942G for 10 minutes.
Plasma was pipetted into Micronic tubes on dry ice, and kept at −20° C. until analysed for plasma concentration of the respective GLP-1 compound using LOCI. Individual plasma concentration-time profiles were analyzed by a non-compartmental pharmacokinetic method in Phoenix v. 6.2 (Pharsight Inc., Mountain View, Calif., USA), or other relevant software for PK analysis, and the resulting terminal half-lives (harmonic mean) determined.

human GLP-1 receptor [2] = target: T1, human GLP-1 receptor; test: In vitro potency: CRE luciferase reporter gene assay in BHK cells expressing the human GLP-1 receptor; assay type: cell-based; conditions: whole cell reporter gene assay, BHK clone FCW467-12A/KZ10-1; averages of at least two replicates
Method: The purpose of this example is to test the activity, or potency, of the GLP-1 derivatives in vitro. The in vitro potency is the measure of human GLP-1 receptor activation in a whole cell assay.
In vitro potency was determined by measuring the response of the human GLP-1 receptor in a reporter gene assay. The assay was performed in a stably transfected BHK cell line that expresses the human GLP-1 receptor and contains the DNA for the cAMP response element (CRE) coupled to a promoter and the gene for firefly luciferase (CRE luciferase). When the human GLP-1 receptor is activated it results in the production of cAMP, which in turn results in the luciferase protein being expressed. When assay incubation is completed the luciferase substrate (luciferin) is added and the enzyme converts luciferin to oxyluciferin to produce bioluminescence. The luminescence is measured as the readout for the assay.
The cells were cultured at 5% CO2 in Cell Culture Medium. They were aliquoted and stored in liquid nitrogen. Before each assay an aliquot is taken up and washed twice in PBS before being suspended at the desired concentration in the assay specific buffer. For 96-well plates the suspension was made to give a final concentration of 5×10^3 cells/well.
The following chemicals were used in the assay: Pluronic F-68 (10%) (Gibco 2404), human serum albumin (HSA) (Sigma A9511), ovalbumin (Sigma A5503), DMEM w/o phenol red (Gibco 11880-028), 1 M Hepes (Gibco 15630), Glutamax 100× (Gibco 35050) and steadylite plus (PerkinElmer 6016757).
Cell Culture Medium consisted of DMEM medium with 10% FBS (Fetal Bovine Serum; Invitrogen 16140-071), 1 mg/ml G418 (Invitrogen 15140-122), 240 nM MTX (methotrexate; Sigma M9929) and 1% pen/strep (penicillin/streptomycin; Invitrogen 15140-122).
Assay Medium consisted of DMEM w/o phenol red, 10 mM Hepes and 1× Glutamax. The Assay Buffer consisted of 2% ovalbumin and 0.2% Pluronic F-68 in Assay Medium.
1) Cell stocks were thawed in a 37° C. water bath.
2) Cells were washed three times in PBS.
3) The cells were counted and adjusted to 5×10^3 cells/50 μl (1×10^5 cells/ml) in Assay Medium. A 50 μl aliquot of cells was transferred to each well in the assay plate.
4) Stocks of the test compounds and reference compounds were diluted to a concentration of 0.2 pM in Assay Buffer. […] Compounds were tested at the following final concentrations: 1×10^−7 M, 1×10^−8 M; 1×10^−9 M, 1×10^−10 M, 1×10^−11 M, 1×10^−12 M, 1×10^−13 M, and 1×10^−14 M. 6) The assay plate was incubated for 3 h in a 5% CO2 incubator at 37° C. 7) The assay plate was removed from the incubator and allowed to stand at room temperature for 15 min. 8) A 100 μl aliquot of steadylite plus reagent was added to each well of the assay plate (reagent was light sensitive). 9) Each assay plate was covered with aluminum foil to protect it from light and shaken for 30 min at room temperature. 10) Each assay plate was read in a Packard TopCount NXT instrument. Calculations and Results
The data from the TopCount instrument were transferred to GraphPad Prism software. The software performs a non-linear regression (log(agonist) vs response).
A minimum of two replicates was measured for each sample. The reported values are averages of the replicates.

T1 sequence (P43220 24-463): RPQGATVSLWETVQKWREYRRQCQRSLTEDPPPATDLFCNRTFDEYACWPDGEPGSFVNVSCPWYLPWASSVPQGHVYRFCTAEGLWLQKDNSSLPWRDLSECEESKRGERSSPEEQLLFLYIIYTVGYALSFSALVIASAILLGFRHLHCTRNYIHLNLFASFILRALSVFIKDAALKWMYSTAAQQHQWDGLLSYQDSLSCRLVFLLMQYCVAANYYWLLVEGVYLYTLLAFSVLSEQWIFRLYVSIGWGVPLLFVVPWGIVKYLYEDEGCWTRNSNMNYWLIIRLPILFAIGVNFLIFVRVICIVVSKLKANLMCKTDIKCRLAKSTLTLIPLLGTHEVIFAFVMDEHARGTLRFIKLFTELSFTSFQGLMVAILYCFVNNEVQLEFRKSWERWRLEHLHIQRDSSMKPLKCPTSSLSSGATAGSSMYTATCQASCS

Compound: CC[C@H](C)[C@H](NC(=O)[C@H](Cc1ccccc1)NC(=O)[C@H](CCCCNC(=O)COCCOCCNC(=O)COCCOCCNC(=O)CC[C@H](NC(=O)CCCCCCCCCCCCCCCCC(=O)O)C(=O)O)NC(=O)[C@H](CCCNC(=N)N)NC(=O)[C@H](C)NC(=O)[C@H](C)NC(=O)[C@H](CCC(N)=O)NC(=O)[C@H](CCC(=O)O)NC(=O)[C@H](CCC(=O)O)NC(=O)[C@H](CC(C)C)NC(=O)[C@H](Cc1ccc(O)cc1)NC(=O)[C@H](CCCCNC(=O)COCCOCCNC(=O)COCCOCCNC(=O)CC[C@H](NC(=O)CCCCCCCCCCCCCCCCC(=O)O)C(=O)O)NC(=O)[C@H](CO)NC(=O)[C@@H](NC(=O)[C@H](CC(=O)O)NC(=O)[C@H](CO)NC(=O)[C@@H](NC(=O)[C@H](Cc1ccccc1)NC(=O)[C@@H](NC(=O)CNC(=O)[C@H](CCC(=O)O)NC(=O)C(C)(C)NC(=O)[C@@H](N)Cc1c[nH]cn1)[C@@H](C)O)[C@@H](C)O)C(C)C)C(=O)N[C@@H](C)C(=O)N[C@@H](Cc1c[nH]c2ccccc12)C(=O)N[C@@H](CC(C)C)C(=O)N[C@H](C(=O)N[C@@H](CCCNC(=N)N)C(=O)NCC(=O)N[C@@H](CCCNC(=N)N)C(=O)N[C@@H](CCCCNC(=O)COCCOCCNC(=O)COCCOCCNC(=O)CC[C@H](NC(=O)CCCCCCCCCCCCCCCCC(=O)O)C(=O)O)C(=O)O)C(C)C [Example 5] (H-H[Aib]EGTFTSDVSK([AEEA-AEEA-γGlu-C18 diacid])YLEEQAARK([AEEA-AEEA-γGlu-C18 diacid])FIAWLVRGRK([AEEA-AEEA-γGlu-C18 diacid])-OH; N-terminus and C-terminus assumed)
- IC50 (human GLP-1 receptor [1]): > 1000 nM

Compound: CC[C@H](C)[C@H](NC(=O)[C@H](Cc1ccccc1)NC(=O)[C@H](CCCCNC(=O)[C@@H](N)CCCCNC(=O)COCCOCCNC(=O)COCCOCCNC(=O)CC[C@H](NC(=O)CCCCCCCCCCCCCCCCC(=O)O)C(=O)O)NC(=O)[C@H](CCCNC(=N)N)NC(=O)[C@H](C)NC(=O)[C@H](C)NC(=O)[C@H](CCC(N)=O)NC(=O)[C@H](CCC(=O)O)NC(=O)[C@H](CCC(=O)O)NC(=O)[C@H](CC(C)C)NC(=O)[C@H](Cc1ccc(O)cc1)NC(=O)[C@H](CCCCNC(=O)[C@@H](N)CCCCNC(=O)COCCOCCNC(=O)COCCOCCNC(=O)CC[C@H](NC(=O)CCCCCCCCCCCCCCCCC(=O)O)C(=O)O)NC(=O)[C@H](CO)NC(=O)[C@@H](NC(=O)[C@H](CC(=O)O)NC(=O)[C@H](CO)NC(=O)[C@@H](NC(=O)[C@H](Cc1ccccc1)NC(=O)[C@@H](NC(=O)CNC(=O)[C@H](CCC(=O)O)NC(=O)C(C)(C)NC(=O)[C@@H](N)Cc1c[nH]cn1)[C@@H](C)O)[C@@H](C)O)C(C)C)C(=O)N[C@@H](C)C(=O)N[C@@H](Cc1c[nH]c2ccccc12)C(=O)N[C@@H](CC(C)C)C(=O)N[C@H](C(=O)N[C@@H](CCCNC(=N)N)C(=O)NCC(=O)N[C@@H](CCCNC(=N)N)C(=O)N[C@@H](CCCCNC(=O)[C@@H](N)CCCCNC(=O)COCCOCCNC(=O)COCCOCCNC(=O)CC[C@H](NC(=O)CCCCCCCCCCCCCCCCC(=O)O)C(=O)O)C(=O)O)C(C)C [Example 6] (H-H[Aib]EGTFTSDVSK([εLys-AEEA-AEEA-γGlu-C18 diacid])YLEEQAARK([εLys-AEEA-AEEA-γGlu-C18 diacid])FIAWLVRGRK([εLys-AEEA-AEEA-γGlu-C18 diacid])-OH; N-terminus and C-terminus assumed)
- Low HSA IC50 (human GLP-1 receptor [1]; Low HSA IC50, low serum albumin (max. 0.001% final assay concentration)): 0.4 nM
- IC50 (human GLP-1 receptor [1]): > 1000 nM
- half-life (in vivo): 103 h

Compound: CC[C@H](C)[C@H](NC(=O)[C@H](Cc1ccccc1)NC(=O)[C@H](CCC(=O)O)NC(=O)[C@H](CCCCNC(=O)[C@@H](N)CCCCNC(=O)COCCOCCNC(=O)COCCOCCNC(=O)CC[C@H](NC(=O)CCCCCCCCCCCCCCCCC(=O)O)C(=O)O)NC(=O)[C@H](C)NC(=O)[C@H](C)NC(=O)[C@H](CCC(N)=O)NC(=O)[C@H](CCC(=O)O)NC(=O)[C@H](CCC(=O)O)NC(=O)[C@H](CC(C)C)NC(=O)[C@H](Cc1ccc(O)cc1)NC(=O)[C@H](CO)NC(=O)[C@H](CO)NC(=O)[C@@H](NC(=O)[C@H](CC(=O)O)NC(=O)[C@H](CO)NC(=O)[C@@H](NC(=O)[C@H](Cc1ccccc1)NC(=O)[C@@H](NC(=O)CNC(=O)[C@H](CCC(=O)O)NC(=O)C(C)(C)NC(=O)[C@@H](N)Cc1c[nH]cn1)[C@@H](C)O)[C@@H](C)O)C(C)C)C(=O)N[C@@H](CCCCNC(=O)[C@@H](N)CCCCNC(=O)COCCOCCNC(=O)COCCOCCNC(=O)CC[C@H](NC(=O)CCCCCCCCCCCCCCCCC(=O)O)C(=O)O)C(=O)N[C@@H](Cc1c[nH]c2ccccc12)C(=O)N[C@@H](CC(C)C)C(=O)N[C@H](C(=O)N[C@@H](CCCNC(=N)N)C(=O)NCC(=O)N[C@@H](CCCNC(=N)N)C(=O)N[C@@H](CCCCNC(=O)[C@@H](N)CCCCNC(=O)COCCOCCNC(=O)COCCOCCNC(=O)CC[C@H](NC(=O)CCCCCCCCCCCCCCCCC(=O)O)C(=O)O)C(=O)O)C(C)C [Example 11] (H-H[Aib]EGTFTSDVSSYLEEQAAK([εLys-AEEA-AEEA-γGlu-C18 diacid])EFIK([εLys-AEEA-AEEA-γGlu-C18 diacid])WLVRGRK([εLys-AEEA-AEEA-γGlu-C18 diacid])-OH; N-terminus and C-terminus assumed)
- IC50 (human GLP-1 receptor [1]): > 1000 nM

Compound: CC[C@H](C)[C@H](NC(=O)[C@H](Cc1ccccc1)NC(=O)[C@H](CCC(=O)O)NC(=O)[C@H](CCCCNC(=O)[C@@H](N)CCCCNC(=O)COCCOCCNC(=O)COCCOCCNC(=O)[C@H](CS(=O)(=O)O)NC(=O)CCCCCCCCCCCCCCCS(=O)(=O)O)NC(=O)[C@H](C)NC(=O)[C@H](C)NC(=O)[C@H](CCC(N)=O)NC(=O)[C@H](CCC(=O)O)NC(=O)[C@H](CCC(=O)O)NC(=O)[C@H](CC(C)C)NC(=O)[C@H](Cc1ccc(O)cc1)NC(=O)[C@H](CO)NC(=O)[C@H](CO)NC(=O)[C@@H](NC(=O)[C@H](CC(=O)O)NC(=O)[C@H](CO)NC(=O)[C@@H](NC(=O)[C@H](Cc1ccccc1)NC(=O)[C@@H](NC(=O)CNC(=O)[C@H](CCC(=O)O)NC(=O)C(C)(C)NC(=O)[C@@H](N)Cc1c[nH]cn1)[C@@H](C)O)[C@@H](C)O)C(C)C)C(=O)N[C@@H](CCCCNC(=O)[C@@H](N)CCCCNC(=O)COCCOCCNC(=O)COCCOCCNC(=O)[C@H](CS(=O)(=O)O)NC(=O)CCCCCCCCCCCCCCCS(=O)(=O)O)C(=O)N[C@@H](Cc1c[nH]c2ccccc12)C(=O)N[C@@H](CC(C)C)C(=O)N[C@H](C(=O)N[C@@H](CCCNC(=N)N)C(=O)NCC(=O)N[C@@H](CCCNC(=N)N)C(=O)N[C@@H](CCCCNC(=O)[C@@H](N)CCCCNC(=O)COCCOCCNC(=O)COCCOCCNC(=O)[C@H](CS(=O)(=O)O)NC(=O)CCCCCCCCCCCCCCCS(=O)(=O)O)C(=O)O)C(C)C [Example 12]
- half-life (in vivo): 111 h

Compound: CC[C@H](C)[C@H](NC(=O)[C@H](Cc1ccccc1)NC(=O)[C@H](CCC(=O)O)NC(=O)[C@H](CCCNC(=N)N)NC(=O)[C@H](C)NC(=O)[C@H](C)NC(=O)[C@H](CCC(N)=O)NC(=O)[C@H](CCCCNC(=O)COCCOCCNC(=O)COCCOCCNC(=O)[C@@H](N)CCCCNC(=O)CCCCCCCCCCCCCCCS(=O)(=O)O)NC(=O)[C@H](CCC(=O)O)NC(=O)[C@H](CC(C)C)NC(=O)[C@H](Cc1ccc(O)cc1)NC(=O)[C@H](CCCCNC(=O)COCCOCCNC(=O)COCCOCCNC(=O)[C@@H](N)CCCCNC(=O)CCCCCCCCCCCCCCCS(=O)(=O)O)NC(=O)[C@H](CO)NC(=O)[C@@H](NC(=O)[C@H](CC(=O)O)NC(=O)[C@H](CO)NC(=O)[C@@H](NC(=O)[C@H](Cc1ccccc1)NC(=O)[C@@H](NC(=O)CNC(=O)[C@H](CCC(=O)O)NC(=O)C(C)(C)NC(=O)[C@@H](N)Cc1c[nH]cn1)[C@@H](C)O)[C@@H](C)O)C(C)C)C(=O)N[C@@H](CCCCNC(=O)COCCOCCNC(=O)COCCOCCNC(=O)[C@@H](N)CCCCNC(=O)CCCCCCCCCCCCCCCS(=O)(=O)O)C(=O)N[C@@H](Cc1c[nH]c2ccccc12)C(=O)N[C@@H](CC(C)C)C(=O)N[C@H](C(=O)N[C@@H](CCCNC(=N)N)C(=O)NCC(=O)N[C@@H](CCCNC(=N)N)C(=O)NCC(=O)O)C(C)C [Example 13]
- EC50 (human GLP-1 receptor [2]): 0.026 nM

Compound: CC[C@H](C)[C@H](NC(=O)[C@H](Cc1ccccc1)NC(=O)[C@H](CCC(=O)O)NC(=O)[C@H](CCCNC(=N)N)NC(=O)[C@H](C)NC(=O)[C@H](C)NC(=O)[C@H](CCC(N)=O)NC(=O)[C@H](CCCCNC(=O)COCCOCCNC(=O)COCCOCCNC(=O)COCCOCCNC(=O)COCCOCCNC(=O)COCCOCCNC(=O)[C@@H](N)CCCCNC(=O)[C@@H](N)CCCCNC(=O)CCCCCNC(=O)CCCCCCCCCCCCCCCS(=O)(=O)O)NC(=O)[C@H](CCC(=O)O)NC(=O)[C@H](CC(C)C)NC(=O)[C@H](Cc1ccc(O)cc1)NC(=O)[C@H](CCCCNC(=O)COCCOCCNC(=O)COCCOCCNC(=O)COCCOCCNC(=O)COCCOCCNC(=O)COCCOCCNC(=O)[C@@H](N)CCCCNC(=O)[C@@H](N)CCCCNC(=O)CCCCCNC(=O)CCCCCCCCCCCCCCCS(=O)(=O)O)NC(=O)[C@H](CO)NC(=O)[C@@H](NC(=O)[C@H](CC(=O)O)NC(=O)[C@H](CO)NC(=O)[C@@H](NC(=O)[C@H](Cc1ccccc1)NC(=O)[C@@H](NC(=O)CNC(=O)[C@H](CCC(=O)O)NC(=O)C(C)(C)NC(=O)[C@@H](N)Cc1c[nH]cn1)[C@@H](C)O)[C@@H](C)O)C(C)C)C(=O)N[C@@H](CCCCNC(=O)COCCOCCNC(=O)COCCOCCNC(=O)COCCOCCNC(=O)COCCOCCNC(=O)COCCOCCNC(=O)[C@@H](N)CCCCNC(=O)[C@@H](N)CCCCNC(=O)CCCCCNC(=O)CCCCCCCCCCCCCCCS(=O)(=O)O)C(=O)N[C@@H](Cc1c[nH]c2ccccc12)C(=O)N[C@@H](CC(C)C)C(=O)N[C@H](C(=O)N[C@@H](CCCNC(=N)N)C(=O)NCC(=O)N[C@@H](CCCNC(=N)N)C(=O)NCC(=O)O)C(C)C [Example 20]
- IC50 (human GLP-1 receptor [1]): 100 nM
